Source: the supplement of paper PMC7017272
± gives the standard deviation of the averaged measurements.

Tests used:
UT-SCC-24A [1] = experiment: drug sensitivity score (DSS); higher = more sensitive; details: treatment time: 3 days
Procedure: (§1)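 HNSCC cell lines (500 cells/well, 384-well) were cultured on plastic, on top of (2D) or embedded (3D) in Matrigel or human leiomyoma matrix Myogel (500 ug/mL; Myogel 3D mixed with rat collagen I). Cells were treated for 3 days with 5 ten-fold concentrations of each drug, and viability was read by CellTiter-Glo. Suffixes _1/_2/_3 on drug names are replicates.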

UT-SCC-24A [2] = experiment: maximal % inhibition of viability relative to DMSO; higher = stronger effect; details: treatment time: 3 days
Procedure: as §1, with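 “CellTiter-Glo. Viability was normalised to DMSO (0% inhibition) and 100 uM benzethonium chloride (100% inhibition) controls and fitted with the FIMM DSRT pipeline to give IC50 (nM), maximal % inhibition and the drug sensitivity score (DSS).” for “CellTiter-Glo.”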

UT-SCC-106A = experiment: drug sensitivity score (DSS); higher = more sensitive; extreme values may be limits of the assay; details: treatment time: 3 days
Summary of the method: (§2)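 Viability was read with CellTiter-Glo 2.0 luminescence and scaled against vehicle (0.1% DMSO) and cell-killing control wells. The assay used HPV-negative HNSCC cell lines at 500 cells/well in 384-well plates, grown on plastic, on Matrigel or Myogel coatings (500 µg/mL), or embedded in Matrigel or Myogel plus rat collagen I, and treated for 3 days at five 10-fold concentrations. IC50, maximal inhibition and drug sensitivity score were derived from percent-inhibition dose–response curves fitted in the FIMM pipeline.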

UT-SCC-14 = experiment: as above; details: treatment time: 3 days
Summary of the method: as §2

UT-SCC-24B = experiment: as above; details: treatment time: 3 days
Summary of the method: as §2

UT-SCC-28 = experiment: as above; details: treatment time: 3 days
Summary of the method: as §2

UT-SCC-40 = experiment: as above; details: treatment time: 3 days
Summary of the method: as §2

UT-SCC-42A = experiment: as above; details: treatment time: 3 days
Summary of the method: as §2

UT-SCC-42B = experiment: as above; details: treatment time: 3 days
Summary of the method: as §2

UT-SCC-44 = experiment: as above; details: culture condition: embedded in Matrigel; treatment time: 3 days
Summary of the method: as §2

[3] = culture condition: embedded in Matrigel
[4] = culture condition: embedded in Myogel + collagen I
[5] = culture condition: on top of Matrigel
[6] = culture condition: on top of Myogel
[7] = culture condition: plastic 2D (no matrix)

Work on `COc1cc(F)c(F)c(Nc2ccc(I)cc2F)c1NS(=O)(=O)C1(C[C@H](O)CO)CC1` [Refametinib] yielded a drug sensitivity score (UT-SCC-24A [1]; [3]) of 34.3 ± 1.1 DSS, a drug sensitivity score (UT-SCC-24A [1]; [4]) of 17.3 ± 2.2 DSS and a drug sensitivity score (UT-SCC-24A [1]; [5]) of 29.2 ± 1.3 DSS. The drug sensitivity score (UT-SCC-24A [1]; [6]) was 13 ± 1.6 DSS, the drug sensitivity score (UT-SCC-24A [1]; [7]) was 26.7 ± 0.62 DSS and the “maximal % inhibition of viability” value (UT-SCC-24A [2]; [3]) was 84.4 ± 1.8%. For the same molecule, the “maximal % inhibition of viability” value (UT-SCC-24A [2]; [4]) was 73.9 ± 0.81%, the “maximal % inhibition of viability” value (UT-SCC-24A [2]; [5]) was 80.4 ± 2.4% and the “maximal % inhibition of viability” value (UT-SCC-24A [2]; [6]) was 59.7 ± 7.4%. The “maximal % inhibition of viability” value (UT-SCC-24A [2]; [7]) was 75.4 ± 3.4%, the drug sensitivity score (UT-SCC-106A; [3]) was 17.8 ± 1.8 DSS and the drug sensitivity score (UT-SCC-106A; [4]) was 3.97 ± 0.67 DSS. The drug sensitivity score (UT-SCC-106A; [5]) was 21.6 ± 1.2 DSS, the drug sensitivity score (UT-SCC-106A; [6]) was 5.3 ± 0.82 DSS and the drug sensitivity score (UT-SCC-106A; [7]) was 20.4 ± 0.42 DSS. It also gave a drug sensitivity score (UT-SCC-14; [3]) of 13.5 ± 4.8 DSS, a drug sensitivity score (UT-SCC-14; [4]) of 9.87 ± 1.7 DSS and a drug sensitivity score (UT-SCC-14; [5]) of 10.9 ± 3.1 DSS. For the same molecule, the drug sensitivity score (UT-SCC-14; [6]) was 8.53 ± 0.47 DSS, the drug sensitivity score (UT-SCC-14; [7]) was 5.8 ± 2.8 DSS and the drug sensitivity score (UT-SCC-24B; [3]) was 12.4 ± 0.7 DSS. It also gave a drug sensitivity score (UT-SCC-24B; [4]) of 10.4 ± 1.8 DSS, a drug sensitivity score (UT-SCC-24B; [5]) of 11.8 ± 0.98 DSS and a drug sensitivity score (UT-SCC-24B; [6]) of 6.87 ± 1 DSS. It also gave a drug sensitivity score (UT-SCC-24B; [7]) of 16.4 ± 2.1 DSS, a drug sensitivity score (UT-SCC-28; [3]) of 9.8 ± 1.8 DSS and a drug sensitivity score (UT-SCC-28; [4]) of 4.67 ± 4.2 DSS. For the same molecule, the drug sensitivity score (UT-SCC-28; [5]) was 13.2 ± 2.8 DSS, the drug sensitivity score (UT-SCC-28; [7]) was 4.4 ± 2.4 DSS and the drug sensitivity score (UT-SCC-40; [3]) was 26.9 ± 1.2 DSS. The drug sensitivity score (UT-SCC-40; [4]) was 16.8 ± 2 DSS, the drug sensitivity score (UT-SCC-40; [5]) was 22.5 ± 1.8 DSS and the drug sensitivity score (UT-SCC-40; [6]) was 14.3 ± 1.1 DSS. For the same molecule, the drug sensitivity score (UT-SCC-40; [7]) was 14.1 ± 1.1 DSS, the drug sensitivity score (UT-SCC-42A; [3]) was 18 ± 1.1 DSS and the drug sensitivity score (UT-SCC-42A; [4]) was 8.7 ± 1.7 DSS. For the same molecule, the drug sensitivity score (UT-SCC-42A; [5]) was 19.2 ± 0.8 DSS, the drug sensitivity score (UT-SCC-42A; [6]) was 11.5 ± 1.4 DSS and the drug sensitivity score (UT-SCC-42A; [7]) was 15.3 ± 0.1 DSS. It also gave a drug sensitivity score (UT-SCC-42B; [3]) of 25.5 ± 1.9 DSS, a drug sensitivity score (UT-SCC-42B; [5]) of 15.7 ± 1.7 DSS and a drug sensitivity score (UT-SCC-42B; [6]) of 5.27 ± 0.5 DSS. For the same molecule, the drug sensitivity score (UT-SCC-42B; [7]) was 8.27 ± 1.1 DSS and the drug sensitivity score (UT-SCC-44) was 23.7 ± 1.5 DSS.
